From ChEMBL document CHEMBL3046166, “Synthesis and biological evaluation of some new Thiazolo[3,2-a][1,3,5]triazine derivatives” (2012)
Calls of active or inactive are those of the source. No cut-off for these calls is given here.

Key:
[1] = system: Escherichia coli; test: Antibacterial activity against Escherichia coli after 24 hr by agar diffusion technique; format: functional
[2] = Induction of DNA fragmentation using ethidium bromide staining by agarose gel electrophoresis

Row | Structure (SMILES) | Activity [2] | diameter of the inhibition zone (DIZ) [1] [mm]
1 | N=C1NC(=O)/C(=C/c2ccccc2)S1 | Active | 15
2 | CC1(C)S[C@@H]2[C@H](NC(=O)[C@H](N)c3ccccc3)C(=O)N2[C@H]1C(=O)O [AMPICILLIN] |  | 21
3 | CSC(=S)C1Sc2nc(=S)sc(=S)n2C1=O (centres undefined) | Active | 14
4 | Cc1ccc(N/N=C2/SC3=NCN(c4ccccc4)CN3C2=O)cc1 | Active | 13
5 | N=C1NC(=O)CS1 | Active | 14

Further lines, with some results ahead:

Row | Activity [2] | Structure (SMILES) | diameter of the inhibition zone (DIZ) [1] [mm]
6 | Active | O=c1/c(=C/c2ccc(/C=c3/sc4n(c3=O)CN(c3ccccc3)CN=4)cc2)sc2n1CN(c1ccccc1)CN=2 | 14
7 | Active | O=c1/c(=C/c2ccc3c(c2)OCO3)sc2n1CN(c1ccccc1)CN=2 | 14
8 | Active | O=c1/c(=C/c2ccc(Cl)cc2)sc2n1CN(c1ccccc1)CN=2 | 14
9 | Active | CN(C)/C=c1\sc2n(c1=O)CN(c1ccccc1)CN=2 | 26
10 | Active | O=C1CSC2=NCN(c3ccccc3)CN12 | 26
